Calls of active or inactive are those of the source. The rule behind the calls is not given here. A value given as a limit tells only on which side of the number the result lay.

This is an account of results in ChEMBL document CHEMBL1121687, “2-Benzodioxinylaminoethanols: a new class of beta-adrenergic blocking and antihypertensive agents” (J Med Chem, 1981).

Assay [1] concerns the target Beta-1 adrenergic receptor (Cavia porcellus, UniProt B0FL73). Put plainly: (§1) Antagonist activity of compound against Beta-1 adrenergic receptor in isolated guinea pig left atria. The following applies: read-out: pA2 app (converted). The class given is functional.
Assay [2] concerns the target Beta-1 adrenergic receptor (Cavia porcellus) (UniProt B0FL73). Described as §1. The class given is functional.
Assay [3] deals with Rattus norvegicus. The assay can be described thus: Duration of action of 10 mg/kg intravenous dose of compound was determined in SHR test for antihypertensive activity in rats. Format: functional.
Assay [4] concerns Rattus norvegicus. Put plainly: Change in diastolic blood pressure in anesthetized spontaneous hypertensive rats when 10 mg/kg of compound was administered intravenously. The class given is functional, Artery. To be noted: route intravenous.
The test system of assay [5] is Rattus norvegicus. Put plainly: Change in systolic blood pressure in anesthetized spontaneous hypertensive rats when 10 mg/kg of compound was administered intravenously. The class given is functional, Artery. To be noted: route intravenous.
A further assay concerns Canis lupus familiaris. Put plainly: Dose required to induce at least 50% inhibition of the isoprenaline-induced effect, administered intravenously.
Assay [6] deals with Rattus norvegicus. Put plainly: Duration of action of 20 mg/kg intravenous dose of compound was determined in SHR test for antihypertensive activity in rats. Format: functional.
Assay [7] concerns Rattus norvegicus. The assay can be described thus: Change in diastolic blood pressure in anesthetized spontaneous hypertensive rats when 20 mg/kg of compound was administered intravenously. The class given is functional, Artery. The following applies: route intravenous.
The subject of assay [8] is Rattus norvegicus. The assay can be described thus: Change in systolic blood pressure in anesthetized spontaneous hypertensive rats when 20 mg/kg of compound was administered intravenously. To be noted: route intravenous. The class given is functional, Artery.
The target of assay [9] is Beta-2 adrenergic receptor (Cavia porcellus) (UniProt Q8K4Z4). Put plainly: Antagonist activity of compound against Beta-2 adrenergic receptor in isolated guinea pig trachea; inactive. Format: functional, tissue-based.
Sequence of Beta-2 adrenergic receptor (Cavia porcellus) (UniProt Q8K4Z4) (Q8K4Z4 whole entry, looked up): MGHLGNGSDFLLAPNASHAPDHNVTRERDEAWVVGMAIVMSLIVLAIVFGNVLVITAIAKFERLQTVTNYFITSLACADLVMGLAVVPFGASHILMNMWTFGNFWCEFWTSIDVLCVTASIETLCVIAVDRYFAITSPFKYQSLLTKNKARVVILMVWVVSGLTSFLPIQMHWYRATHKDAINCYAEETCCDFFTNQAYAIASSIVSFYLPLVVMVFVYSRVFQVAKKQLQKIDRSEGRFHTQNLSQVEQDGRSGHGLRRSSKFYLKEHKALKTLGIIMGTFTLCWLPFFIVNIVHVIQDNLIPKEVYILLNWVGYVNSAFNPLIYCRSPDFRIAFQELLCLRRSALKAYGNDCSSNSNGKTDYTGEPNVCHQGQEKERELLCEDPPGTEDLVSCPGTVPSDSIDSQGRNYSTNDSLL
Assay [10] relates to Beta-2 adrenergic receptor (Cavia porcellus). Put plainly: Antagonist activity of compound against beta-2 adrenergic receptor in isolated guinea pig trachea; Inactive at a concentration of 10e-4 M/L.
The target in assay [11] is Beta-2 adrenergic receptor (Cavia porcellus) (UniProt Q8K4Z4). Put plainly: Antagonist activity of compound (10e-4 mol/L) against beta 2-adrenergic receptor in isolated guinea pig trachea; Inactive at a concentration of 10e-4 M/L. The class given is functional, tissue-based.
Assay [12] concerns Rattus norvegicus. Put plainly: Duration of action of 2 mg/kg intravenous dose of compound was determined in SHR test for antihypertensive activity in rats. The class given is functional.
For assay [13], the system named is Rattus norvegicus. Put plainly: Duration of action of 5 mg/kg intravenous dose of compound was determined in SHR test for antihypertensive activity in rats. Format: functional.
Assay [14] has as its system Rattus norvegicus. Put plainly: Change in diastolic blood pressure in anesthetized spontaneous hypertensive rats when 2 mg/kg of compound was administered intravenously. Format: functional, Artery. To be noted: route intravenous.
In assay [15] the test system is Rattus norvegicus. The assay can be described thus: Change in diastolic blood pressure in anesthetized spontaneous hypertensive rats when 5 mg/kg of compound was administered intravenously. The class given is functional, Artery. To be noted: route intravenous.
Assay [16] has as its system Rattus norvegicus. The assay can be described thus: Change in systolic blood pressure in anesthetized spontaneous hypertensive rats when 2.5 mg/kg of compound was administered intravenously. To be noted: route intravenous.
Assay [17] relates to Rattus norvegicus. The description is as above. To be noted: route intravenous. This is another data set of the same source.
Assay [18] deals with Beta-2 adrenergic receptor (Cavia porcellus) (UniProt Q8K4Z4). Put plainly: Antagonist activity of compound against Beta-2 adrenergic receptor in isolated guinea pig trachea; Inactive at a concentration of 10e-4 M/L. The class given is functional, tissue-based.
The species entered for assay [19] is Rattus norvegicus. Put plainly: Duration of action of compound was determined for antihypertensive action in rats. The class given is functional.
Assay [20] deals with Rattus norvegicus. The assay can be described thus: Change in systolic blood pressure in anesthetized spontaneous hypertensive rats when 5 mg/kg of compound was administered intravenously. Format: functional, Artery. The following applies: route intravenous.

Sequence of Beta-1 adrenergic receptor (B0FL73 whole entry): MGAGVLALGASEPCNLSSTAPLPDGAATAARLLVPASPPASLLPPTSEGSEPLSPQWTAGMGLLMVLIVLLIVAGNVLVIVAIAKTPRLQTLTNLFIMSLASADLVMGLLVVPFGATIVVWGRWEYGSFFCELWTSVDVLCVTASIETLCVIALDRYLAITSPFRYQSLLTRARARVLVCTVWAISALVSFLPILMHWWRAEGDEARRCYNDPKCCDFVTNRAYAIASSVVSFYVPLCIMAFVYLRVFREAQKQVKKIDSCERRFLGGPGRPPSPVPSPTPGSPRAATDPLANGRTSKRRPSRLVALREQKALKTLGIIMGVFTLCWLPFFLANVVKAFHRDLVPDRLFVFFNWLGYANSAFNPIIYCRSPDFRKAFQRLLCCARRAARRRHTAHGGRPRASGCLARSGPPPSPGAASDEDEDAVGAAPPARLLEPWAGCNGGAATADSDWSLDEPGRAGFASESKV
Sequence of Beta-1 adrenergic receptor (Cavia porcellus) (B0FL73 1-467): as the sequence (B0FL73 whole entry) above

Consider `CC(C)(C)NCC(O)C1=COc2ccccc2O1` (stereo not given), for which the Kb in assay [1] is 0.00851 µM. The same compound displayed a pD2 app in assay [2] of 4.8. Also, the Duration of action with Rattus norvegicus [3] was 25 min. Also, the figures for the “Change in BP” value in the assay on Rattus norvegicus [4] and in the assay with Rattus norvegicus [5] were -57% and -50%, respectively. The compound also gave a Dose with Canis lupus familiaris of 1 mg/kg.

In the case of `OC(CN1CCCCC1)C1=COc2ccccc2O1` (stereo not given), the Kb in assay [1] is 0.617 µM. In the assay on Rattus norvegicus [6], this compound gave a Duration of action of 20 min. In addition, the “Change in BP” value in the assay with Rattus norvegicus [7] is recorded as -78%; in the assay with Rattus norvegicus [8], -66%.

In the case of `OC(CN1CCN(c2cccc(C(F)(F)F)c2)CC1)C1=COc2ccccc2O1` (stereo not given), in assay [9], the pD2 app entry is “inactive”. The same compound had a Duration of action with Rattus norvegicus [6] of 20 min. For the same compound, the entries for the “Change in BP” value in the assay with Rattus norvegicus [7] and in the assay with Rattus norvegicus [8] were -83% and -65%, respectively. Besides, the Dose with Canis lupus familiaris was 10 mg/kg. Besides, the pA2 app result in assay [10] was “inactive”.

As to `COc1ccccc1N1CCN(CC(O)C2=COc3ccccc3O2)CC1` (stereo not given), the pD2 app in [2] is 4.84. Besides, the pA2 app result in assay [11] was “inactive”. Also, the Duration of action with Rattus norvegicus [12] and in the assay on Rattus norvegicus [13] was over 45 min throughout. The “Change in BP” value in the assay with Rattus norvegicus [14], with Rattus norvegicus [15], in the assay on Rattus norvegicus [16] and with Rattus norvegicus [17] was -41% throughout.

Regarding `CC(=O)Nc1ccc(OCC(O)CNC(C)C)cc1` (stereo not given) [PRACTOLOL], the pD2 app entry in [18] is “inactive”. The Duration of action in the assay listed under Rattus norvegicus [19] came to 45 min. Also, the results for the “Change in BP” value with Rattus norvegicus [7] and with Rattus norvegicus [8] were -31% and -32%, respectively. Further, the Dose in the assay with Canis lupus familiaris is 2.5 mg/kg.

In turn, `Oc1nc2ccccc2n1C1CCN(CC(O)C2=COc3ccccc3O2)CC1` (stereo not given) had a pD2 app in [2] of 4.89. Besides, the pD2 app result in assay [18] is “inactive”. Besides, the Duration of action in the assay on Rattus norvegicus [12] and in the assay on Rattus norvegicus [13] was over 25 min each time. The “Change in BP” value is on record as -43% in the assay with Rattus norvegicus [14], -43% in the assay with Rattus norvegicus [15], -38% in the assay with Rattus norvegicus [16] and -38% in the assay on Rattus norvegicus [17]. The Dose with Canis lupus familiaris worked out at 1 mg/kg.

With `CC(C)NCC(O)C1=COc2ccccc2O1` (stereo not given), in the assay with Rattus norvegicus [13], the Duration of action is given as over 45 min. Also, the “Change in BP” value with Rattus norvegicus [15] is reported as -60%; with Rattus norvegicus [20], -49%.

The compound `CC(C)NCC(O)COc1cccc2ccccc12` (stereo not given) [PROPRANOLOL] returned a Duration of action in the assay listed under Rattus norvegicus [19] of 30 min. Moreover, the figures for the “Change in BP” value with Rattus norvegicus [15] and in the assay on Rattus norvegicus [20] were -64% and -54%, respectively. Moreover, in the assay with Canis lupus familiaris, the Dose turned out to be 0.25 mg/kg.

Consider `COc1ccc(CCNCC(O)C2=COc3ccccc3O2)cc1OC` (stereo not given), for which the Duration of action in the assay on Rattus norvegicus [12] and in the assay with Rattus norvegicus [13] was over 25 min in each case. The “Change in BP” value in the assay with Rattus norvegicus [14] is reported as -37%; with Rattus norvegicus [17], -33%. This compound had a Dose with Canis lupus familiaris of 1 mg/kg.

Consider `OC(CN1CCCCCC1)C1=COc2ccccc2O1` (stereo not given), for which the Kb in [1] was 1.17 µM. For the same compound, the Duration of action with Rattus norvegicus [3] came to 20 min. Also, the figures for the “Change in BP” value in the assay on Rattus norvegicus [4] and with Rattus norvegicus [5] were -57% and -44%, respectively. In the assay with Canis lupus familiaris, this compound returned a Dose of 10 mg/kg.
